Patent US8716249B2, “Compositions and methods for improving cardiovascular health” (Energy Light LLC, priority 2008, dated 2014)
Where two headings read alike, the source gives them in different places.

Key:
[1] = cited from earlier work
[2] = Comparison of EAA+arginine with fenofibrate in a similar population of elderly (FIG. 2)
[3] = patients with mixed hyperlipidemia, 80 mg atorvostatin daily or 200 mg fenofibrate

CC(C)c1c(C(=O)Nc2ccccc2)c(-c2ccccc2)c(-c2ccc(F)cc2)n1CC[C@@H](O)C[C@@H](O)CC(=O)O [atorvostatin]
reduction of TGs [1, 3]: 65%
reduction of VLDL [1, 3]: 57%

CC(C)OC(=O)C(C)(C)Oc1ccc(C(=O)c2ccc(Cl)cc2)cc1 [fenofibrate]
fall of plasma triglyceride concentration ([2]; fenofibrate treatment for 60 days): approximately 33%
effect on liver triglyceride ([2]; treatment for 60 days): no significant effect

Cc1ccc(C)c(OCCCC(C)(C)C(=O)O)c1 [gemfibrozil]
time to maximal effects on TG ([1]; gemfibrozil treatment): ≤ 4 weeks
decrease of TG concentrations ([1]; patients with hypertryglyceridemia and hypercholesterolemia): 45%
decrease of TG concentrations ([1]; patients with isolated hypercholesterolemia): 38%
